For data set [1], the target named is T1, human DGAT1 (Homo sapiens, UniProt O75907).
T1 construct: FLAG (N); made in house; host or cells: SF9 insect cells (pFastBac / baculovirus); total cell membranes
T1 sequence (O75907 1-488): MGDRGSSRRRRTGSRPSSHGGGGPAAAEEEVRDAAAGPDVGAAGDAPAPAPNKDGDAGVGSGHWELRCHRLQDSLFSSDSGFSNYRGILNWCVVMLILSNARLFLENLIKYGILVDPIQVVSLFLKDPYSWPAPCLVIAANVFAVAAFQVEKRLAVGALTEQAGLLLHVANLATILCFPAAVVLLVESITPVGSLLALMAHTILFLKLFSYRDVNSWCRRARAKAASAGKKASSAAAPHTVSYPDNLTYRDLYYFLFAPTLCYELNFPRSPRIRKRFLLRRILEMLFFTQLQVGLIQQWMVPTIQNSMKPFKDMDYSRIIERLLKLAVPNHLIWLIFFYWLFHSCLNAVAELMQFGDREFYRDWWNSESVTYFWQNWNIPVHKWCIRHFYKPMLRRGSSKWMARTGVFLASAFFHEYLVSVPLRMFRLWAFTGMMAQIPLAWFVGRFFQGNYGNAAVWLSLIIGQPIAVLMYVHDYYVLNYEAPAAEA
Kind of data set: DGAT1 FlashPlate assay: inhibition of DGAT1 activity in membrane preparations. It is filed as biochemical. To be noted: human DGAT1 membranes from SF9 cells, [3H]-oleoylCoA, 120 min at 37° C.; for IC50: read-out: pIC50 (-logIC50, 50% inhibition of DGAT1 activity) (converted). From the text: The inhibiting activity of compounds of Class A, Class B, Class C and Class D on DGAT1 activity was screened in a single well procedure assay using DGAT1 comprising membrane preparations and DGAT1 substrate comprising micelles and determining formed radio-active triacylglycerol coming in close proximity of a flashplate surface by radioluminescence.
Said assay is described in full detail in WO2006/067071, the content of which is incorporated herein by reference.
By DGAT1 activity is meant the transfer of coenzyme A activated fatty acids to the 3-position of 1,2-diacylglycerols, thus forming a triglyceride molecule, by enzyme DGAT1.
human DGAT1 (NM012079.2) was cloned into the pFastBac vector, containing translation start, a FLAG-tag at the N-terminus as described in literature and a viral Kozak sequence (AAX) preceding the ATG to improve expression in insect cells. Expression was done as described in literature (Cases, S., Smith, S. J., Zheng, Y., Myers H. M., Lear, S. R., Sande, E., Novak, S., Collins, C., Welch, C. B., Lusis, A. J., Erickson, S. K. and Farese, R. V. (1998) Proc. Natl. Acad. Sci. USA 95, 13018-13023.) using SF9 cells.
72h transfected SF9 cells were collected by centrifugation (13000 rpm-15 min-4° C.) and lysed in 2×500 ml lysisbuffer (0.1M Sucrose, 50 mM KCl, 40 mM KH2PO4, 30 mM EDTA pH 7.2. Cells were homogenized by cell disruptor. After centrifugation 1380 rpm-15 min-4° C. (SN discarded), pellet was resuspended in 500 ml lysisbuffer and total cell membranes collected by ultracentrifugation at 34000 rpm(100 000 g) for 60 min (4° C.). The collected membranes were resuspended in lysis buffer, divided in aliquots and stored with 10% glycerol at −80° C. until use.
• a) 1,2-dioleoyl-sn-glycerol, 10 mg/ml (1,2-diacylglycerol (DAG)) Dissolve in acetonitrile; evaporate the acetonitrile solution under nitrogen and reconstitute in chloroform at a final concentration of 10 mg/ml. • b) L-α-phosphatidylcholine, 1 mg/ml (phosphatidylcholine (PC)) • Dissolve in chloroform at a final concentration of 1 mg/ml and store at 4° C. • c) L-α-phosphatidyl-L-serine, 1 mg/ml (phophatidylserine (PS)) • Dissolve in chloroform at a final concentration of 1 mg/ml and store at 4° C. Method
Add 1 ml dioleoyl-sn-glycerol (10 mg/ml) to 10 ml of L-α-phosphatidylcholine (1 mg/ml) and 10 ml of L-α-phosphatidyl-L-serine (1 mg/ml) in a thick glass recipient. Evaporate under nitrogen and put on ice for 15 min Reconstitute in 10 ml Tris/HCl (10 mM, pH 7.4) by sonication on ice. The sonification process includes sonification cycles of 10 seconds in the sonification bath followed by 10 seconds cool down on ice and repeating this sonification cycle till a homogeneous solution is obtained (takes about 15 min). The thus obtained micelles are stored at −20° C. till later use and contain DAG at a final concentration of 1.61 mM.
• a) Assaybuffer • 50 mM Tris-HCl (pH 7.4), 150 mM MgCl2, 1 mM EDTA, 0.2% BSA. • b) N-ethylmaleimide, 5M • Dissolve 5 g into a final volume of 8 ml DMSO 100% and store at −20° C. in aliquots till later use. • c) Substrate mix (for 1 384 well plate=3840 μl) • 612 μl micelles stock (51 μM final) • 16.6 μl oleoylCoA 9.7 mM • 23 μl [^3H]-oleoylCoA (49 Ci/mmol, 500 μCi/ml) • 3188.4 μl Tris pH 7.4, 10 mM • d) Enzyme mix (for 1 384 well plate=3520 μl) (5 μg/ml) • Add 11.73 μl of DGAT membrane stock (1500 μg/ml stock) to 3508 μl assay buffer. • e) Stop mix (for 1 384 well plate=7.68 ml) (250 mM) • Add 384 μl of N-ethylmaleimide (5M) to 3.456 ml DMSO 100%, and further dilute 3.84 ml of said solution with 3.84 ml DMSO 10%. Method
DGAT activity in membrane preparations was assayed in 50 mM Tris-HCl (pH 7.4), 150 mM MgCl2, 1 mM EDTA and 0.2% BSA, containing 50 μM DAG, 32 μg/ml PC/PS and 8.4 μM [^3H]-oleoylCoA (at a specific activity of 30 nCi/well) in a final volume of 50 μl in 384-well format using the red shifted Basic Image FlashPlate™ (Perkin Elmer Cat.No. SMP400). […]

The structures appear in SMILES notation.

For orientation: melting point means the temperature of the solid-liquid transition.

For the molecule `COc1ccc(CC(=O)Nc2ccc(N3CCN(C(=O)C(O)c4ccc(CN5CCCC5)cc4Cl)CC3)cc2)cc1` (centres unmarked) [352-Class D, N-[4-[4-[[2-chloro-4-(1-pyrrolidinylmethyl)phenyl]hydroxyacetyl]-1-piperazinyl]phenyl]-4-methoxy-benzeneacetamide], the “pIC50 (-logIC50, 50% inhibition of DGAT1 activity)” value in data set [1] turned out to be 6.45.

As for `COc1ccc(CC(=O)Nc2ccc(N3CCN(C(=O)Cc4c(Cl)cc(CN5CCCC5)cc4Cl)CC3)cc2)cc1` [351-Class D, N-[4-[4-[[2,6-dichloro-4-(1-pyrrolidinylmethyl)phenyl]acetyl]-1-piperazinyl]phenyl]-4-methoxy-benzeneacetamide], in data set [1], the “pIC50 (-logIC50, 50% inhibition of DGAT1 activity)” value is listed as 6.62.

Molecule `CCN1CCN(Cc2cc(Cl)c(CC(=O)N3CCN(c4ccc(C(=O)NCc5cccc(N6CCCC6)c5)cc4)CC3)c(Cl)c2)CC1` [359-Class D, 4-[4-[[2,6-dichloro-4-[(4-ethyl-1-piperazinyl)methyl]phenyl]acetyl]-1-piperazinyl]-N-[[3-(1-pyrrolidinyl)phenyl]methyl]-benzamide] registered a melting point of 240 to 241 °C. Further, the IC50 in data set [1] was 0.0282 µM.

`O=C(Nc1cccc(N2CCCC2)c1)c1ccc(N2CCN(C(=O)Cc3ccc(CN4CCCC4)cc3Cl)CC2)cc1` [151-Class C, 4-[4-[[2-chloro-4-(1-pyrrolidinylmethyl)phenyl]acetyl]-1-piperazinyl]-N-[3-(1-pyrrolidinyl)phenyl]-benzamide]: the melting point fell in the range of 224.1 to 225.4 °C. The IC50 in data set [1] was 0.316 µM.

Regarding `CCN1CCN(Cc2cc(Cl)c(CC(=O)N3CCN(c4ccc(C(=O)NCc5cc(OC)cc(OC)c5)cc4)CC3)c(Cl)c2)CC1` [360-Class D, 4-[4-[[2,6-dichloro-4-[(4-ethyl-1-piperazinyl)methyl]phenyl]acetyl]-1-piperazinyl]-N-[(3,5-dimethoxyphenyl)methyl]-benzamide], the melting point is 159 to 160 °C. Also, the IC50 in data set [1] is 0.00759 µM.

As for `CC(=O)N1CCN(Cc2cc(Cl)c(CC(=O)N3CCN(c4ccc(C(=O)Nc5cccc(N6CCCC6)c5)cc4)CC3)c(Cl)c2)CC1` [149-Class C, 4-[4-[[4-[(4-acetyl-1-piperazinyl)methyl]-2,6-dichlorophenyl]acetyl]-1-piperazinyl]-N-[3-(1-pyrrolidinyl)phenyl]-benzamide], the melting point fell in the range of 250 to 252 °C. Further, the IC50 in data set [1] is 0.00617 µM.

`CCN1CCN(Cc2cc(Cl)c(CC(=O)N3CCN(c4ccc(C(=O)Nc5cccc(N6CCCC6)c5)cc4)CC3)c(Cl)c2)CC1` [148-Class C, 4-[4-[[2,6-dichloro-4-[(4-ethyl-1-piperazinyl)methyl]phenyl]acetyl]-1-piperazinyl]-N-[3-(1-pyrrolidinyl)phenyl]-benzamide] registered a melting point of 180 to 182 °C. Also, the IC50 in data set [1] is 0.00912 µM.

As for `COc1cc(CNC(=O)c2ccc(N3CCN(C(=O)Cc4ccc(CN5CCCC5)cc4Cl)CC3)cc2)cc(OC)c1` [353-Class D, 4-[4-[[2-chloro-4-(1-pyrrolidinylmethyl)phenyl]acetyl]-1-piperazinyl]-N-[(3,5-dimethoxyphenyl)methyl]-benzamide], the melting point lay within 126.6 to 128.1 °C. In addition, the IC50 in data set [1] was 0.257 µM.

The molecule `O=C(NCc1cccc(N2CCCC2)c1)c1ccc(N2CCN(C(=O)C(O)c3ccc(CN4CCCC4)cc3Cl)CC2)cc1` (centres unmarked) [356-Class D, 4-[4-[[2-chloro-4-(1-pyrrolidinylmethyl)phenyl]hydroxyacetyl]-1-piperazinyl]-N-[[3-(1-pyrrolidinyl)phenyl]methyl]-benzamide] returned a melting point of 134.4 to 137 °C. Moreover, the IC50 in data set [1] is 0.0741 µM.

For the molecule `COc1cc(CNC(=O)c2ccc(N3CCN(C(=O)C(O)c4ccc(CN5CCCC5)cc4Cl)CC3)cc2)cc(OC)c1` (centres unmarked) [357-Class D, 4-[4-[[2-chloro-4-(1-pyrrolidinylmethyl)phenyl]hydroxyacetyl]-1-piperazinyl]-N-[(3,5-dimethoxyphenyl)methyl]-benzamide], the IC50 in data set [1] was 0.055 µM.

`COc1cc(CNC(=O)c2ccc(N3CCN(C(=O)Cc4c(Cl)cc(CN5CCN(S(C)(=O)=O)CC5)cc4Cl)CC3)cc2)cc(OC)c1` [364-Class D, 4-[4-[[2,6-dichloro-4-[[4-(methylsulfonyl)-1-piperazinyl]methyl]phenyl]acetyl]-1-piperazinyl]-N-[(3,5-dimethoxyphenyl)methyl]-benzamide]: the melting point is 152 to 154 °C. The IC50 in data set [1] was 0.00575 µM.

As to `CS(=O)(=O)N1CCN(Cc2cc(Cl)c(CC(=O)N3CCN(c4ccc(C(=O)Nc5cccc(N6CCCC6)c5)cc4)CC3)c(Cl)c2)CC1` [150-Class C, 4-[4-[[2,6-dichloro-4-[[4-(methylsulfonyl)-1-piperazinyl]methyl]phenyl]acetyl]-1-piperazinyl]-N-[3-(1-pyrrolidinyl)phenyl]-benzamide], the melting point fell in the range of 240 to 242 °C. Moreover, in data set [1], the IC50 was 0.00603 µM.

On to `O=C(NCc1cccc(N2CCCC2)c1)c1ccc(N2CCN(C(=O)Cc3c(Cl)cc(CN4CCCC4)cc3Cl)CC2)cc1` [267-Class D, 4-[4-[[2,6-dichloro-4-(1-pyrrolidinylmethyl)phenyl]acetyl]-1-piperazinyl]-N-[[3-(1-pyrrolidinyl)phenyl]methyl]-benzamide], for which the “pIC50 (-logIC50, 50% inhibition of DGAT1 activity)” value in data set [1] is recorded as 6.97.

Molecule `O=C(NCc1cccc(N2CCCC2)c1)c1ccc(N2CCN(C(=O)Cc3ccc(CN4CCCC4)cc3Cl)CC2)cc1` [354-Class D, 4-[4-[[2-chloro-4-(1-pyrrolidinylmethyl)phenyl]acetyl]-1-piperazinyl]-N-[[3-(1-pyrrolidinyl)phenyl]methyl]-benzamide] registered a melting point of 206.3 to 209.4 °C. Also, in data set [1], the IC50 is 0.646 µM.

As to `O=C(Nc1cccc(N2CCCC2)c1)c1ccc(N2CCN(C(=O)Cc3c(Cl)cc(CN4CCCC4)cc3Cl)CC2)cc1` [147-Class C, 4-[4-[[2,6-dichloro-4-(1-pyrrolidinylmethyl)phenyl]acetyl]-1-piperazinyl]-N-[3-(1-pyrrolidinyl)phenyl]-benzamide], the melting point fell in the range of 262 to 263 °C. For the same molecule, the IC50 in data set [1] is 0.0389 µM.

Source of the values: patent US9107946B2, “Drug combinations comprising a DGAT inhibitor and a PPAR-agonist” (Janssen Pharmaceutica NV, priority 2008, dated 2015).
